Reference: patent publication US10238738B2, “Methods of modulating immune system responses” (priority 2014, dated 2019)

Tests used:
[1] = test system: TRAF2; experiment: FLAG-TIFA immunoprecipitation and immunoblot for TRAF2; format: cell-based, human; conditions: HBP treatment; FIG. 16a
Protocol: (§1) FLAG-TIFA was immunoprecipitated from Jurkat cells using FLAG M2 agarose beads (Sigma) as described previously (Chen and Gingras, 2007). Briefly, cells were lysed in 50 mM Hepes-KOH pH 8.0, 100 mM KCl, 2 mM EDTA, 0.1% NP40, 10% glycerol. Soluble cell lysates were pre-cleared for 2 hr with mouse IgG agarose (Sigma) and immunoprecipitated overnight at 4° C. Proteins eluted using 0.5 M NH4OH pH 11 (for mass-spectrometry), or 3× FLAG-peptide (Sigma) (immunoblot analysis). TRAF6 was immunoprecipitated from Jurkat cell lysates using rabbit anti-TRAF6 (sc-72201; Santa cruz) conjugated to protein A/G PLUS-agarose (Santa cruz) and eluted in sample buffer. Whole cell lysates or immunoprecipitation eluates were immunoblotted with the following antibodies: M2 anti-FLAG (Sigma), rabbit anti-FLAG (Sigma), mouse anti-TRAF6 (sc-8409; Santa Cruz), rabbit anti-TRAF2 (sc-876), mouse anti-ubiquitin (sc-8017; Santa cruz), mouse anti-beta actin (Sigma). For phosphopeptide analysis, FLAG-TIFA was excised from the gel, subject to in-gel trypic digestion, followed by treatment with cyanogen bromide (Sigma) in 70% TFA and analyzed by LC/MS/MS. Data were analyzed by Scaffold PTM (Proteome).

[2] = test system: NF-κB dependent genes in Jurkat T cells; experiment: Microarray, qRT-PCR and NF-κB subunit ELISA in Jurkat T cells; format: cell-based, human; conditions: compared with flagellin or TNFα, FIG. 2b,c
Protocol: (§2) RNA was isolated using an RNeasy kit (Qiagen) per manufacturers' protocol. cDNA was synthesized using the iScript cDNA synthesis kit (Bio-Rad) and treated with TURBO DNase (Life Technologies). cDNA was amplified using SsoAdvanced SYBR Green (Bio-Rad) using a C1000 thermal cycler (Bio-Rad). Target genes were amplified using the following primers: […]
(§3) Relative expression was calculated using the 2^−ΔΔCT method following normalization of target gene abundance to GAPDH. Quantitative measurements of cytokines were performed using ELISA kits form R&D Systems (KC, IL-23, IFN-β) or BD Biosciences (IL-1β, IL-8, IL-6, IL-12p70, TNF-α). Nuclear extracts were prepared from Jurkat T cells and NF-κB subunit binding was determined using the TransAM® Transcription Factor ELISA (Active Motif). Microarray
Two clonal populations of Jurkat cells were stimulated for 2 hr with purified HBP-containing supernatants, or supernatants from M. catarrhalis. RNA was extracted using RNeasy (Qiagen), labeled using Illumina TotalPrep RNA Amplification kit (Ambion) and analyzed on a human HT-12 v4.0 Beadchip (Illumina). Data normalization and analysis were provided as a service by the Bioinformatics Department of the University Health Network (UHN) Micro array Centre, Toronto, ON. Data was analyzed using Genespring v11.0.1. […]

[3] = test system: HIV gene expression from latently-infected cells; experiment: Latent HIV-1 reporter Jurkat T cell line (RG5), DsRed expression; format: cell-based, human; conditions: FIG. 11B
Description: The full-length HIV-1 molecular clone pLAl containing the following modifications was used as the reporter backbone: Avrll deletion of the 3′ end of Gag and the entire coding sequence of Pol, and a the Ndel/Stul deletion of the 3′ end of Env. The Dsred allele was cloned into the Nef reading frame using BamH1, and Xhol. Lentiviral particles were produced by co-transfection into 293T cells with pMDG.2 and psPAX2. Jurkat cells were transduced with the minimum dose required to see DsRed positive cells following treatment with 10 ng/ml TNFα. 48 hours post transfection, cells were treated HBP, and DsRed positive cells sorted by FACS. Cells were cultured for 14 days followed by DsRed negative cell sorting by FACS. 5 days later, cells were induced with HBP, and DsRed positive cells collected into 96 well plates (0.5 cells/well). Clones were individually tested for low basal DsRed expression, and high DsRed expression following treatment with both HBP and TNFα and termed RG5.
Live cells were re-suspended to 1×10^6 cells/ml in 2% FBS in PBS and analyzed using a FACSCalibur with CellQuest software (Becton Dickinson). Analysis was preformed using FlowJo software (TreeStar). Cell sorting was done using an Aria I cell sorter (Becton Dickinson).

[4] = test system: TIFA expression; experiment: qRT-PCR of TIFA mRNA levels in Jurkat T cells; format: cell-based, human; conditions: dependent on RelA, FIG. 13
Description: FIG. 13. Shown is qRT-PCR analysis of TIFA mRNA levels in Jurkat T cells treated with HBP, flagellin, or TNFα (after knockdown of the NF-κB subunit ReIA, or treated with a scrambled shRNA (shCtrl).
as §2, §3

[5] = target: T1, TIFA (Homo sapiens, UniProt Q96CG3); experiment: Phosphopeptide analysis of FLAG-TIFA by LC-MS/MS; format: cell-based; conditions: HBP or mock-treated cells stably expressing FLAG-TIFA; FIG. 19a
T1 construct: expressed in transfected cells; endogenous TIFA knocked down with a 3' UTR shRNA
T1 sequence (Q96CG3 1-184): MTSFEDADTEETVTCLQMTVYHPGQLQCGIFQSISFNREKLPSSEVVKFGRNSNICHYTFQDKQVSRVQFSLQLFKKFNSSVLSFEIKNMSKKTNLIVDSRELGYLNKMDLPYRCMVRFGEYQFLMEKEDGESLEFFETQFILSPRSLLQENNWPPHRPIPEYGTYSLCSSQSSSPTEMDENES
Protocol: as §1

Structure (SMILES): O=P(O)(O)OC[C@@H](O)[C@H]1OC(OP(=O)(O)O)[C@@H](O)[C@@H](O)[C@@H]1O (stereo partly drawn) [HBP, D-glycerol-D-manno-heptose-1,7-bisphosphate]
- TIFA interaction with TRAF2 [1]: No interaction was observed
- Kinetics of NF-κB activation and pro-inflammatory transcriptional response [2]: slower, and persisted longer
- HIV gene expression from latently-infected cells [3]: potently induce HIV gene expression
- Upregulation of TIFA expression [4]: over 5 fold
- TIFA Thr9 phosphorylation [5]: phosphorylated only after treatment with HBP
